Experimental findings from PubChem BioAssay (NCI) are described below.

Some test systems named below: HCT-15 colon; UO-31 renal; UACC-257 melanoma; KM12 colon; SNB-19 CNS; T-47D breast; MOLT-4 leukemia; 786-0 renal; MDA-N; NCI-H460 lung; MCF7 breast; OVCAR-5 ovarian.
Common to all, as to test: growth of human tumour cells (NCI), 48 h

Several values for one entry are separate records, joined by “and”; a condition that tells them apart may be missing. Equal entries are not always repeated.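 Results reflect a 48-hour exposure of cells in 96-well plates to compound at five concentrations. Definition used: TGI = concentration required for complete inhibition of growth.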

Take `O=C1CC2CCC(C1)S2=O` (stereo unspecified): the TGI in the experiment on HCT-15 colon, in the experiment on UO-31 renal, in the experiment on UACC-257 melanoma, with KM12 colon, with SNB-19 CNS and in the experiment on T-47D breast was more than 100 µM throughout. Further, the TGI with MOLT-4 leukemia, in the experiment on 786-0 renal, in the experiment on MDA-N, in the experiment with NCI-H460 lung and in the experiment with MCF7 breast was more than 100 µM each time.
On to `C=CC(C)(C)C(=C)C(=O)Nc1ccccc1I`, for which the TGI with HCT-15 colon, in the experiment on UO-31 renal, in the experiment on UACC-257 melanoma, in the experiment on KM12 colon, in the experiment on SNB-19 CNS and in the experiment with T-47D breast was more than 100 µM each time. Also, the TGI with 786-0 renal, in the experiment with MDA-N, in the experiment on OVCAR-5 ovarian, with NCI-H460 lung and with MCF7 breast was more than 100 µM in each case.
`[N-]=[N+]=C(C(=O)N1CCCC1=O)S(=O)(=O)c1ccccc1`: the TGI in the experiment with HCT-15 colon, with UO-31 renal, with UACC-257 melanoma, in the experiment on KM12 colon, in the experiment with SNB-19 CNS and in the experiment with MOLT-4 leukemia was more than 100 µM each time. In addition, the TGI with 786-0 renal, with MDA-N, in the experiment with NCI-H460 lung and with MCF7 breast was more than 100 µM each time.
Consider `CC(C)(C)OC(=O)NCC(=O)N1CCN(C(=O)CNC(=O)OC(C)(C)C)CC1`, for which the TGI in the experiment on HCT-15 colon, with UO-31 renal, in the experiment with UACC-257 melanoma, in the experiment on KM12 colon, in the experiment with SNB-19 CNS and in the experiment on T-47D breast was more than 100 µM throughout. In addition, the TGI in the experiment with MOLT-4 leukemia, with 786-0 renal, with MDA-N, with OVCAR-5 ovarian and in the experiment with MCF7 breast was more than 100 µM in each case.
`C/C=C(/C)C(=O)O[C@H]1[C@H](O)CC(c2ccc3c(c2O)C(O)=C2C(=O)C4(OC)C(O)=C(C(N)=O)C(=O)[C@H](CC(=O)c5ccccc5O)C4CC2[C@@]3(C)OC)O[C@@H]1C` (stereo partly specified): the TGI is 18.1 µM in the experiment on HCT-15 colon; 2.34 µM in the experiment on UO-31 renal; 0.226 µM and 0.0935 µM in the experiment on KM12 colon; 1.68 µM and 1.06 µM in the experiment with SNB-19 CNS; 8.06 µM with T-47D breast; 10.5 µM in the experiment on MOLT-4 leukemia. The TGI was 1.43 µM and 1.35 µM with 786-0 renal; 2.09 µM with MDA-N; 2.02 µM and 0.916 µM in the experiment with OVCAR-5 ovarian; 1.15 µM in the experiment with MCF7 breast.
Take `O=c1ccc2ccc(O)cc2o1`: the TGI in the experiment with HCT-15 colon, with UO-31 renal, with UACC-257 melanoma, in the experiment with KM12 colon, in the experiment with SNB-19 CNS and in the experiment on T-47D breast was more than 100 µM throughout. For the same compound, the TGI in the experiment on MOLT-4 leukemia, in the experiment on 786-0 renal, in the experiment on MDA-N, in the experiment with OVCAR-5 ovarian and with MCF7 breast was more than 100 µM in each case.
For `NC1CC=C(COC(=O)C(O)(c2ccccc2)C2CC2)CC1` (stereo unspecified), the TGI in the experiment on HCT-15 colon, with UO-31 renal, with UACC-257 melanoma, with KM12 colon, in the experiment with SNB-19 CNS and with T-47D breast was more than 100 µM each time. Further, the TGI in the experiment with MOLT-4 leukemia, with 786-0 renal, in the experiment on MDA-N, in the experiment on OVCAR-5 ovarian and in the experiment with MCF7 breast was more than 100 µM throughout.
`CN(Cc1cc(Cl)c(Cl)cc1NC(=O)CN)[C@H]1CCCC[C@@H]1N1CCCC1`: the TGI is more than 100 µM with UO-31 renal; 31.7 µM in the experiment with UACC-257 melanoma; more than 100 µM in the experiment with KM12 colon; more than 100 µM in the experiment on SNB-19 CNS; more than 100 µM in the experiment on T-47D breast; more than 100 µM in the experiment with MOLT-4 leukemia. Moreover, the TGI in the experiment with 786-0 renal was 33 µM; in the experiment with MDA-N, 31.4 µM; with OVCAR-5 ovarian it was more than 100 µM; in the experiment with NCI-H460 lung, 57.8 µM; in the experiment with MCF7 breast, more than 100 µM.
On to `CC(=O)Nc1ccccc1NC1CC(C)N(c2ccccc2)N1C(C)=O` (stereo unspecified), for which the TGI with HCT-15 colon, in the experiment on UACC-257 melanoma, in the experiment with KM12 colon, with T-47D breast, in the experiment on MOLT-4 leukemia and in the experiment on 786-0 renal was more than 10 µM each time. The TGI in the experiment on MDA-N and in the experiment with MCF7 breast was more than 10 µM each time.
As to `CN1CCN(C2=CC(=O)c3c(O)ccc(O)c3C2=O)CC1`, the TGI with UO-31 renal is 2.92 µM; in the experiment with UACC-257 melanoma it was 0.467 µM; with KM12 colon, 3.59 µM; in the experiment with SNB-19 CNS, 3.05 µM; with T-47D breast, 2.04 µM; in the experiment with MOLT-4 leukemia, 4.75 µM. The TGI amounted to 3.91 µM with 786-0 renal, 0.325 µM in the experiment with MDA-N, 3.52 µM in the experiment on NCI-H460 lung and 1.18 µM in the experiment with MCF7 breast.
For `COc1cc(Br)c(CC2C3=C(CCN2C(=O)C2CCC2)CC(=O)CC3)cc1O` (stereo unspecified), the TGI in the experiment with HCT-15 colon was 47.5 µM; in the experiment on UO-31 renal it was more than 100 µM; in the experiment on UACC-257 melanoma it was more than 100 µM; in the experiment on KM12 colon it was 73.3 µM; in the experiment with SNB-19 CNS, more than 100 µM; with T-47D breast it was 71.8 µM. Moreover, the TGI in the experiment with MOLT-4 leukemia was more than 100 µM; in the experiment on 786-0 renal it was 95.8 µM; in the experiment on MDA-N, 45 µM; with OVCAR-5 ovarian, more than 100 µM; in the experiment with NCI-H460 lung it was more than 100 µM.
As for `C[N+](C)(CCNC(=O)c1cccc2cc3ccccc3nc12)Cc1ccc([N+](=O)[O-])s1`, the TGI in the experiment with HCT-15 colon, in the experiment on UO-31 renal, with UACC-257 melanoma, in the experiment on KM12 colon, in the experiment on T-47D breast and with MOLT-4 leukemia was more than 25 µM throughout. Besides, the TGI in the experiment with 786-0 renal, in the experiment on MDA-N, with OVCAR-5 ovarian and in the experiment on MCF7 breast was more than 25 µM throughout.
As for `O=C(CSc1nc2ccccc2c(=O)n1-c1ccccc1)N=Nc1c(O)[nH]c2ccc(F)cc12`, the TGI in the experiment on UO-31 renal is 3.73 µM; in the experiment with UACC-257 melanoma it was 6 µM; in the experiment on KM12 colon, 32.6 µM; in the experiment with SNB-19 CNS, 67.5 µM; in the experiment on T-47D breast it was 3.97 µM; in the experiment with MOLT-4 leukemia it was 3.43 µM. The TGI was found to be 5.05 µM in the experiment with 786-0 renal; 14 µM in the experiment on MDA-N; 4.73 µM with OVCAR-5 ovarian; 4.69 µM in the experiment with NCI-H460 lung; 4.3 µM in the experiment with MCF7 breast.
